Experimental data as given in article PMC10140157, “Molecular determinants for differential activation of the bile acid receptor from the pathogen Vibrio parahaemolyticus” (The Journal of Biological Chemistry, 2023).

Experiments:
[1] = target: T1, VtrA–VtrC periplasmic domain complex (heterodimer) (Vibrio parahaemolyticus, UniProt Q87GI3+Q87GI4); assay: isothermal titration calorimetry; format: binding
T1 construct: gene VPA1333; periplasmic domains: VtrC residues 31-161 with N-terminal His6 tag, coexpressed with VtrA residues 161-253 (pACYC-Duet-VtrC/VtrA, E. coli BL21(DE3)); heterodimer, bile acid lies in the beta-barrel, contacts printed are VtrC residues

[2] = target: T2, VtrA–VtrC periplasmic domain complex (heterodimer) (Vibrio parahaemolyticus, UniProt Q87GI3+Q87GI4, Q87GI3:Y81A); assay: biochemical
T2 construct: gene VPA1333
Excerpt: (§1) isothermal titration calorimetry on VtrA–VtrC periplasmic domain complex (heterodimer)

[3] = target: T3, VtrA–VtrC periplasmic domain complex (heterodimer) (Vibrio parahaemolyticus, UniProt Q87GI3+Q87GI4, Q87GI3:S123A); assay: biochemical
T3 construct: gene VPA1333
Excerpt: as §1

[4] = target: T4, VtrA–VtrC periplasmic domain complex (heterodimer) (Vibrio parahaemolyticus, UniProt Q87GI3+Q87GI4, Q87GI3:H50A); assay: biochemical
T4 construct: gene VPA1333
Excerpt: as §1

[5] = target: T5, VtrA–VtrC periplasmic domain complex (heterodimer) (Vibrio parahaemolyticus, UniProt Q87GI3+Q87GI4, Q87GI3:Y151F); assay: biochemical
T5 construct: gene VPA1333
Excerpt: as §1

[6] = target: T6, VtrA–VtrC periplasmic domain complex (heterodimer) (Vibrio parahaemolyticus, UniProt Q87GI3+Q87GI4, Q87GI3:Y151A); assay: biochemical
T6 construct: gene VPA1333
Excerpt: as §1

[7] = target: T1, VtrA–VtrC periplasmic domain complex (heterodimer); assay: isothermal titration calorimetry; crystal structure of the complex also solved ([…] Å); format: binding

SMILES | Kd [1] [nM] | Kd [2] [nM] | Kd [3] [nM] | Kd [4] [nM] | Kd [5] [nM] | Kd [6] [nM] | Kd [7] [nM]
C[C@H](CCC(=O)O)[C@H]1CC[C@H]2[C@@H]3[C@H](O)C[C@@H]4C[C@H](O)CC[C@]4(C)[C@H]3C[C@H](O)[C@]12C [CA, cholate] | 377 | – | – | – | – | – | –
C[C@H](CCC(=O)O)[C@H]1CC[C@H]2[C@@H]3[C@H](O)C[C@@H]4C[C@H](O)CC[C@]4(C)[C@H]3CC[C@]12C [CDC, chenodeoxycholate] | – | 731 | 202 | 904 | 1170 | 2280 | 310
C[C@H](CCC(=O)O)[C@H]1CC[C@H]2[C@@H]3CC[C@@H]4C[C@H](O)CC[C@]4(C)[C@H]3C[C@H](O)[C@]12C [DC, deoxycholate] | 232 | – | – | – | – | – | –
C[C@H](CCC(=O)NCC(=O)O)[C@H]1CC[C@H]2[C@@H]3[C@H](O)C[C@@H]4C[C@H](O)CC[C@]4(C)[C@H]3CC[C@]12C [GCDC, glycochenodeoxycholate] | 211 | – | – | – | – | – | –
C[C@H](CCC(=O)NCCS(=O)(=O)O)[C@H]1CC[C@H]2[C@@H]3CC[C@@H]4C[C@H](O)CC[C@]4(C)[C@H]3C[C@H](O)[C@]12C [TDC, taurodeoxycholate] | 129 | 1190 | 91.2 | 301 | 873 | 2500 | –
